Assay results from patent publication US20140113945A1, “Novel Pyrrole Inhibitors of S-Nitrosoglutathione Reductase as Therapeutic Agents for Liver Toxicity” (priority 2011, published 2014).
Where two headings read alike, the source gives them in different places. Marks after values point to notes of the source that are not given here.

Tested on: acetaminophen (APAP) induced liver toxicity
Settings: for mean ALT / mean AST / increase in ALT compared to control saline group / increase in AST compared to control saline group / reduction in ALT compared to APAP only / reduction in AST compared to APAP only: mice; for mean ALT / mean AST: substance IV + APAP 300 mg/kg PO; for increase in ALT compared to control saline group / increase in AST compared to control saline group / reduction in ALT compared to APAP only / reduction in AST compared to APAP only: substance IV after APAP 300 mg/kg PO, 24-hour; for Alkaline phosphatase (ALK) levels: mouse, in vivo

## N[C@@H](CCC(=O)N[C@@H](CSN=O)C(=O)NCC(=O)O)C(=O)O [GSNO, S-nitrosoglutathione]
24-hours post-APAP
  mean ALT: 1454.3
  mean AST: 518.0*
72-hours post-APAP
  mean ALT: 31.8*
  mean AST: 55.0*
6 hours post-APAP
  mean ALT: 571.8*
  mean AST: 484.5*
  increase in ALT compared to control saline group: ~5 fold
  increase in AST compared to control saline group: ~4 fold
  reduction in ALT compared to APAP only: 76%
  reduction in AST compared to APAP only: 91%
  Alkaline phosphatase (ALK) levels: did not significantly differ from normal controls

## Cc1cc(C(N)=O)ccc1-n1c(CCC(=O)O)ccc1-c1ccc(Cl)cc1O [Compound 41]
24-hours post-APAP
  mean ALT: 4749.4
  mean AST: 3783.6
72-hours post-APAP
  mean ALT: 97.6
  mean AST: 492.6
6 hours post-APAP
  mean ALT: 3608.0
  mean AST: 3741.2
  increase in ALT compared to control saline group: 43 fold
  increase in AST compared to control saline group: 29 fold
  reduction in ALT compared to APAP only: 23%
  reduction in AST compared to APAP only: 34%
  Alkaline phosphatase (ALK) levels: did not significantly differ from normal controls
